Experimental findings from patent publication US4591504A, “Human leucocyte pepsin-like enzyme as a therapeutic agent for treating allergic disorders and immune complex diseases” (Mochida Pharmaceutical Co., Ltd., priority 1982, dated 1986) are described below.

For experiment [1], the system named is human breast cancer cells MX-1. The experiment can be described thus: Effect on the growth of cultured human breast cancer cells MX-1. The class given is cell-based. To be noted: 100 μg/ml, 48 hours, read-out: Growth inhibition rate. How it is done:
(§1) Human breast cancer cells MX-1 and mouse leukemia cells L1210 were respectively suspended at a cell concentration of 10^5 /ml in Eagle's medium containing 10% calf serum and test substances. The cells were cultured at 37° C. under 5% CO2 for 48 hours. Then the number of viable cells was counted after staining with Tripan Blue. [formula]

For experiment [2], the system named is mouse leukemia cells L1210. Nature of the experiment: Effect on the growth of cultured mouse leukemia cells L1210. The class given is cell-based. The note with it: 100 μg/ml, 48 hours, read-out: Growth inhibition rate. As for the experimental part: as §1
Experiment [3] concerns leukemia cells P388. The experiment can be described thus: Effect on leukemia cells P388 bearing mice. The format is in vivo, mouse (BDF1). To be noted: 0.5 mg/kg; control 100 ± 5. As for the experimental part: 10^5 of leukemia cells P388 were transplanted intraperitoneally to a group of 5 BDF1 male mice. The human leucocyte pepsin-like enzyme was injected intravenously into the mice twice a day beginning on the next day until the animals died. The average life span was calculated and expressed as a percentage of control. [formula]

For orientation: inhibition means the relative decrease from the control value, in per cent. On to `CO[C@@]12[C@H](COC(N)=O)C3=C(C(=O)C(C)=C(N)C3=O)N1C[C@@H]1N[C@@H]12` [Mitomycin C], for which the inhibition at 100 µg/mL was 48% in experiment [1] and 61% in experiment [2]. Further, the “Average life span (percentage of control)” value in experiment [3] came out at 135 ± 16%.
